Experimental findings from patent publication US20240327382A1 (ALMAC DISCOVERY LIMITED, priority 2021, published 2024) are described below.

SMILES strings stand for the structures. A value given as a limit tells only on which side of the number the result lay.

As usually defined, the IC50 is the concentration that gives 50% inhibition.

This test concerns the target T1, Full-length USP19 (Homo sapiens, UniProt O94966).
T1 construct: Full-length USP19 was purchased from Boston Biochem (E-576); purchased Boston Biochem E-576
T1 sequence (O94966 1-1318): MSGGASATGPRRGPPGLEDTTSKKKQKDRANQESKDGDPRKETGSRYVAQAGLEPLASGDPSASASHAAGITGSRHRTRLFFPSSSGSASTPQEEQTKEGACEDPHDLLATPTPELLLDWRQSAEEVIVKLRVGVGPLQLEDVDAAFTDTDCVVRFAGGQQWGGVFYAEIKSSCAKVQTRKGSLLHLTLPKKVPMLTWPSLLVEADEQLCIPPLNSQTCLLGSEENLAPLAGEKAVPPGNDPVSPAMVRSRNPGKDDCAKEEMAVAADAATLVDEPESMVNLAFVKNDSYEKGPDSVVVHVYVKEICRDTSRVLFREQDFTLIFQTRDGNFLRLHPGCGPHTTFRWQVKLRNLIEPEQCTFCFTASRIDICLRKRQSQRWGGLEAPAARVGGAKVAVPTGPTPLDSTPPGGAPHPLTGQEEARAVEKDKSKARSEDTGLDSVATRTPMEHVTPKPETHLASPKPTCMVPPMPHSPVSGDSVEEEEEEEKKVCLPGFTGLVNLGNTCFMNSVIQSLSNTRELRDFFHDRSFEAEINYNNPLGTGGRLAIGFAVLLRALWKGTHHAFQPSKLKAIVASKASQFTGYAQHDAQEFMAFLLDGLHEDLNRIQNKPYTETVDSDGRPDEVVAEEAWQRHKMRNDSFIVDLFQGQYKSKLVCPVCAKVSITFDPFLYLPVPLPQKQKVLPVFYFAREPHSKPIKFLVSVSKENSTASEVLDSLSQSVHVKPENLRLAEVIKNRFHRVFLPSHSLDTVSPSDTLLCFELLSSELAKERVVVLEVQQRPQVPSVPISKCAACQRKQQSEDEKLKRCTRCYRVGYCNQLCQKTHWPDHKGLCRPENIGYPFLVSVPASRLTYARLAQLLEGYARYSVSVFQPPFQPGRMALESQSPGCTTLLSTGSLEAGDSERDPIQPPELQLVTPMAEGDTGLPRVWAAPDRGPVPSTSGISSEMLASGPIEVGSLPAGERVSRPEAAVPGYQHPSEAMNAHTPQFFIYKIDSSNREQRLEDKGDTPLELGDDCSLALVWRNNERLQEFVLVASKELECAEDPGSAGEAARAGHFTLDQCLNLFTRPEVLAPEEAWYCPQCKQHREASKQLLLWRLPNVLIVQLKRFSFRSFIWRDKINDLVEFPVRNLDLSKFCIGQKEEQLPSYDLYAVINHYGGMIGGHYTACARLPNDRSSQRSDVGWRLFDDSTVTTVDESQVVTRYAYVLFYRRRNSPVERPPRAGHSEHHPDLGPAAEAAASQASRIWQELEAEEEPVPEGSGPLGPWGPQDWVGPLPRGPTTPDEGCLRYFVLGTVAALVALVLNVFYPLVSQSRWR
Briefly: USP19 fluorescence polarisation (FP) assay, Ubiquitin-Lys-TAMRA substrate. Type of test: biochemical. The note with it: average of at least two duplicate experiments. As for the experimental part: USP19 activity was determined in a fluorescence polarisation (FP) homogeneous assay using the isopeptide Ubiquitin-Lys-TAMRA substrate (either AUB-101, Almac Sciences Scotland Limited, or U-558, Boston Biochem, both of which gave identical results). Full-length USP19 was purchased from Boston Biochem (E-576). Unless otherwise stated, all other reagents were purchased from Sigma. Enzymatic reactions were conducted in black flat bottom polystyrene 384-well plates (Nunc) and 30 μL total volume. USP19 (2.5 nM, 10 μL) was incubated in assay buffer (50 mM HEPES (pH 7.4), 150 mM NaCl, 5 mM DTT, 0.05% BSA (w/v), 0.05% CHAPS) in the presence or absence of inhibitor (10 μL). Inhibitors were stored as 10 mM DMSO stocks in an inert environment (low humidity, dark, low oxygen, rt) using the StoragePod® system (Roylan Developments) and serial dilutions were prepared in buffer just prior to the assay (from 200 μM to 2 μM, 8-18 data point curve). Following incubation at RT for 30 min, the enzymatic reactions were initiated by dispensing the Ub substrate (500 nM, 10 μL). FP was measured every 15 min over a period of 90 min (within the linear range of the assay) using a Synergy 4 plate reader (BioTek) exciting at 530 nm and measuring the amount of parallel and perpendicular light at 575 nm. The FP signal was subsequently normalised to the no compound control. Data were plotted and fitted, and the concentrations resulting in 50% inhibition (IC50) were calculated using the non-linear regression curve fitting model using GraphPad (Prism). IC50 values for the inhibitors of the invention are compiled in Tables 1 and 3 and represent the average of at least two duplicate experiments.
A general note: Fluorescence polarisation rises when a labelled molecule tumbles more slowly, as on binding a larger partner.

In the case of `CN[C@@H]1CCN(C(=O)N2CC[C@@H](Cn3ccc(-c4ccccc4)cc3=O)C(C)(C)C2)[C@H](c2ccccc2)C1` [Example 72, 1-(((R)-3,3-Dimethyl-1-((2S,4R)-4-(methylamino)-2-phenylpiperidine-1-carbonyl)piperidin-4-yl)methyl)-4-phenylpyridin-2(1H)-one], the 50% inhibitory concentration (IC50) was under 10 nM. For `O=C(N[C@@H]1CCN(C(=O)N2CC[C@@H](Cn3cnc(-c4ccccc4)cc3=O)C3(CCCC3)C2)[C@H](c2cc(F)ccc2F)C1)c1ccccn1` [Example 165, N-((2S,4R)-2-(2,5-Difluorophenyl)-1-((R)-10-((6-oxo-4-phenylpyrimidin-1(6H)-yl)methyl)-7-azaspiro[4.5]decane-7-carbonyl)piperidin-4-yl)picolinamide], the IC50 lay within 10 to 100 nM. Consider `CN[C@@H]1CCN(C(=O)N2CC[C@@H](Cn3ccc(-c4ccccc4OC)cc3=O)C3(CCCC3)C2)[C@H](c2ccccc2F)C1` [Example 118, 1-(((R)-7-((2S,4R)-2-(2-Fluorophenyl)-4-(methylamino)piperidine-1-carbonyl)-7-azaspiro[4.5]decan-10-yl)methyl)-4-(2-methoxyphenyl)pyridin-2(1H)-one], for which the concentration for half-maximal inhibition (IC50) was under 10 nM. To `N[C@@H]1CCN(C(=O)N2CC[C@@H](Cn3cnc(-c4ccccc4)cc3=O)C3(CCCC3)C2)[C@H](c2cc(F)ccc2F)C1` [Example 86, 3-(((R)-7-((2S,4R)-4-amino-2-(2,5-difluorophenyl)piperidine-1-carbonyl)-7-azaspiro[4.5]decan-10-yl)methyl)-6-phenylpyrimidin-4(3H)-one] belongs under 10 nM; to `N[C@@H]1CCN(C(=O)N2CCC(Cn3cnc(C(F)(F)F)cc3=O)C3(CCCC3)C2)[C@H](c2ccccc2)C1` (stereo partly drawn) [Example 34, 3-((7-((2S,4R)-4-Amino-2-phenylpiperidine-1-carbonyl)-7-azaspiro[4.5]decan-10-yl)methyl)-6-(trifluoromethyl) pyrimidin-4(3H)-one], 10 to 100 nM; to `N[C@@H]1CCN(C(=O)N2CCC(Cn3ccncc3=O)C3(CCCC3)C2)[C@H](c2ccccc2)C1` (stereo partly drawn) [Example 31, 1-((7-((2S,4R)-4-Amino-2-phenylpiperidine-1-carbonyl)-7-azaspiro[4.5]decan-10-yl)methyl)pyrazin-2(1H)-one], 10 to 100 nM. To `N[C@@H]1CCN(C(=O)N2CC[C@@H](Cn3ccc(-c4ccccc4F)cc3=O)C3(CCCC3)C2)[C@H](c2ccccc2)C1` [Example 61, 1-(((R)-7-((2S,4R)-4-Amino-2-phenylpiperidine-1-carbonyl)-7-azaspiro[4.5]decan-10-yl)methyl)-4-(2-fluorophenyl)pyridin-2(1H)-one] belongs under 10 nM; to `CN[C@@H]1CCN(C(=O)N2CC[C@@H](Cn3cnc(-c4ccccc4OC)cc3=O)C3(CCCC3)C2)[C@H](c2ccccc2)C1` [Example 97, 6-(2-Methoxyphenyl)-3-(((R)-7-((2S,4R)-4-(methylamino)-2-phenylpiperidine-1-carbonyl)-7-azaspiro[4.5]decan-10-yl)methyl)pyrimidin-4(3H)-one], under 10 nM; to `CC1(c2cc(=O)n(CC3CCN(C(=O)N4CC[C@@H](N)C[C@H]4c4ccccc4)CC34CCCC4)cn2)CC1` (stereo partly drawn) [Example 36, 3-((7-((2S,4R)-4-Amino-2-phenylpiperidine-1-carbonyl)-7-azaspiro[4.5]decan-10-yl)methyl)-6-(1-methylcyclopropyl) pyrimidin-4(3H)-one], under 10 nM.

In the case of `N[C@@H]1CCN(C(=O)N2CCC(Cn3cnc(C(F)F)cc3=O)C3(CCCC3)C2)[C@H](c2ccccc2)C1` (stereo partly drawn) [Example 28, 3-((7-((2S,4R)-4-Amino-2-phenylpiperidine-1-carbonyl)-7-azaspiro[4.5]decan-10-yl)methyl)-6-(difluoromethyl) pyrimidin-4(3H)-one], the concentration for half-maximal inhibition (IC50) was in the range of 10 to 100 nM.

On to `CN[C@@H]1CCN(C(=O)N2CC[C@@H](CN3CCC(c4ccccc4OC)=CC3=O)C3(CCCC3)C2)[C@H](c2ccc(F)cc2F)C1` (racemic) [Example 127, 1-(((R)-7-((2S,4R)-2-(2,4-Difluorophenyl)-4-(methylamino)piperidine-1-carbonyl)-7-azaspiro[4.5]decan-10-yl)methyl)-4-(2-methoxyphenyl)-5,6-dihydropyridin-2(1H)-one and 1-(((S)-7-((2S,4R)-2-(2,4-Difluorophenyl)-4-(methylamino)piperidine-1-carbonyl)-7-azaspiro[4.5]decan-10-yl)methyl)-4-(2-methoxyphenyl)-5,6-dihydropyridin-2(1H)-one], for which the half-maximal inhibitory concentration (IC50) was under 10 nM. Consider `COC(=O)CN[C@@H]1CCN(C(=O)N2CC[C@@H](Cn3cnc(-c4ccccc4)cc3=O)C3(CCCC3)C2)[C@H](c2ccccc2)C1` [Example 105, Methyl ((2S,4R)-1-((R)-10-((6-oxo-4-phenylpyrimidin-1(6H)-yl)methyl)-7-azaspiro[4.5]decane-7-carbonyl)-2-phenylpiperidin-4-yl)glycinate], for which the IC50 is under 10 nM. Consider `CN[C@@H]1CCN(C(=O)N2CC[C@@H](Cn3cnc(-c4ccccc4C)cc3=O)C3(CCCC3)C2)[C@H](c2cccc(F)c2)C1` [Example 119, 3-(((R)-7-((2S,4R)-2-(3-Fluorophenyl)-4-(methylamino)piperidine-1-carbonyl)-7-azaspiro[4.5]decan-10-yl)methyl)-6-(0-tolyl)pyrimidin-4(3H)-one], for which the IC50 is under 10 nM. To `CN[C@@H]1CCN(C(=O)N2CC[C@@H](Cn3cnc(-c4ccccc4)cc3=O)C3(CCCC3)C2)[C@H](c2ccc(F)c(F)c2)C1` [Example 133, 3-(((R)-7-((2S,4R)-2-(3,4-Difluorophenyl)-4-(methylamino)piperidine-1-carbonyl)-7-azaspiro[4.5]decan-10-yl)methyl)-6-phenylpyrimidin-4(3H)-one] belongs under 10 nM.

Regarding `CN[C@@H]1CCN(C(=O)N2CC[C@@H](Cn3cnc(-c4ccccc4OC)cc3=O)C3(CCCC3)C2)[C@H](c2ccccc2F)C1` [Example 103, 3-(((R)-7-((2S,4R)-2-(2-Fluorophenyl)-4-(methylamino)piperidine-1-carbonyl)-7-azaspiro[4.5]decan-10-yl)methyl)-6-(2-methoxyphenyl)pyrimidin-4(3H)-one], the concentration for half-maximal inhibition (IC50) was under 10 nM.

Turning to `CN[C@@H]1CCN(C(=O)N2CC[C@@H](Cn3cnc4ccc(Cl)cc4c3=O)C3(CCCC3)C2)[C@H](c2cc(F)ccc2F)C1` [Example 198, 6-Chloro-3-(((R)-7-((2S,4R)-2-(2,5-difluorophenyl)-4-(methylamino)piperidine-1-carbonyl)-7-azaspiro[4.5]decan-10-yl)methyl)quinazolin-4(3H)-one], the half-maximal inhibitory concentration (IC50) is under 10 nM. As for `CN[C@@H]1CCN(C(=O)N2CCC(Cn3ccc(-c4ccccc4)cc3=O)CC2)[C@H](c2ccccc2)C1` [Example 47, 1-((1-((2S,4R)-4-(Methylamino)-2-phenylpiperidine-1-carbonyl)piperidin-4-yl)methyl)-4-phenylpyridin-2(1H)-one], the IC50 was under 10 nM.
